Assay results as given in ChEMBL document CHEMBL1201862, “PubChem BioAssay data set” (2004).
The source made the active and inactive calls.

Tests used:
Beta-lactamase [1] = target: Beta-lactamase (Salmonella choleraesuis (strain SC-B67), UniProt Q5J463); assay: Epi-absorbance-based counterscreen for selective VIM-2 inhibitors: dose response biochemical high throughput screening assay to identify inhibitors of TEM-1 serine-beta-lactamase.
Beta-lactamase [2] = target: T1, Beta-lactamase (Pseudomonas aeruginosa, UniProt Q79MP6); assay: IMP-1 metallo-beta-lactamase inhibitors, dose response, selectivity assay for VIM-2 inhibitor project, biochemical, epi-absorbance (AID 1920)
Beta-lactamase [3] = target: T1, Beta-lactamase; assay: […] counterscreen for selective VIM-2 inhibitors: dose response biochemical high throughput screening assay to identify inhibitors of IMP-1 metallo-beta-lactamase.
cells [4] = assay type: functional, cell-based
cells [5] = assay type: functional, cell-based; remark: listed apart in the source
[6] = target: Fructose-bisphosphate aldolase (Mycobacterium tuberculosis, UniProt P9WQA3); assay: Fluorescence-based biochemical high throughput dose response assay for inhibitors of the fructose-bisphosphate aldolase (FBA) of M. tuberculosis.; assay type: functional
[7] = target: T2, Voltage-gated N-type calcium channel alpha-1B subunit/Amyloid beta A4 precursor protein-binding family A member 1 (Homo sapiens, UniProt Q00975+Q02410); assay type: protein assay
[8] = target: T2, Voltage-gated N-type calcium channel alpha-1B subunit/Amyloid beta A4 precursor protein-binding family A member 1; assay type: protein assay; remark: listed apart in the source
[9] = target: 26S proteasome non-ATPase regulatory subunit 14 (Homo sapiens, UniProt O00487); assay: inhibition of proteasome subunit RPN11 – biochemical, fluorescence polarization, uHTS hits, confirmation (AID 602368); assay type: functional
[10] = target: 72 kDa type IV collagenase (Homo sapiens, UniProt P08253); assay: Dose Response validation of uHTS RPN11 inhibitor hits using a MMP-2 Fluorescence assay.; assay type: functional
Prothrombin = Prothrombin (Bos taurus, UniProt P00735); assay: thrombin inhibition, dose response, biochemical, fluorescence polarization, uHTS hits (AID 602369); assay type: functional
[11] = target: Arf-GAP with SH3 domain, ANK repeat and PH domain-containing protein 1 (Homo sapiens, UniProt Q9ULH1); assay type: functional;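 also: biochemical fluorescence polarization dose–response screen measuring inhibition of ASAP1; ASAP1 GAP domain stimulating GTP hydrolysis by truncated human ARF1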
[12] = target: T3, Carboxy-terminal domain RNA polymerase II polypeptide A small phosphatase 1 (Homo sapiens, UniProt Q9GZU7); assay: inhibitors of CTDSP1, concentration-response testing, biochemical assay, absorbance-based, actives from ultra-high-throughput screening (AID 540297); assay type: functional
T3 sequence (Q9GZU7 whole entry): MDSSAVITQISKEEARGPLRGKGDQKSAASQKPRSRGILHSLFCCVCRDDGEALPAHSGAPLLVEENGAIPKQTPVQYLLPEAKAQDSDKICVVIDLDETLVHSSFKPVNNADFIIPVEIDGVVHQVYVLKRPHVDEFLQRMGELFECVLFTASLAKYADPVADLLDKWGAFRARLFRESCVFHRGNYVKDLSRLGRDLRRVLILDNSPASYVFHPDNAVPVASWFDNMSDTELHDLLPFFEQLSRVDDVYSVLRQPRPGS

Caspase-3 = target: T4, Caspase-3 (Homo sapiens, UniProt P42574); assay type: functional;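 also: Dose-response selectivity test against caspase-3 for candidate inhibitors of sentrin-specific proteases (SENPs)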
T4 sequence (P42574 whole entry): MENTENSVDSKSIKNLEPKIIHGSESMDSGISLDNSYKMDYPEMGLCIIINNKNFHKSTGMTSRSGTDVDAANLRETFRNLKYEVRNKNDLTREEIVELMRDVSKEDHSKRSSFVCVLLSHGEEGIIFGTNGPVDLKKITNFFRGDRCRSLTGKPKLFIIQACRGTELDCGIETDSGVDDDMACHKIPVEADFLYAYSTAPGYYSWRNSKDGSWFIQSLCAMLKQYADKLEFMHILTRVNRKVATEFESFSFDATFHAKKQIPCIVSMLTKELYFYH

[13] = target: T5, Sentrin-specific protease 7 (Homo sapiens, UniProt Q9BQF6); assay type: functional;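 also: Luminescence-based dose-response confirmation of ultra-high-throughput screening hits, measuring inhibition of SENP7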
T5 sequence (Q9BQF6 whole entry): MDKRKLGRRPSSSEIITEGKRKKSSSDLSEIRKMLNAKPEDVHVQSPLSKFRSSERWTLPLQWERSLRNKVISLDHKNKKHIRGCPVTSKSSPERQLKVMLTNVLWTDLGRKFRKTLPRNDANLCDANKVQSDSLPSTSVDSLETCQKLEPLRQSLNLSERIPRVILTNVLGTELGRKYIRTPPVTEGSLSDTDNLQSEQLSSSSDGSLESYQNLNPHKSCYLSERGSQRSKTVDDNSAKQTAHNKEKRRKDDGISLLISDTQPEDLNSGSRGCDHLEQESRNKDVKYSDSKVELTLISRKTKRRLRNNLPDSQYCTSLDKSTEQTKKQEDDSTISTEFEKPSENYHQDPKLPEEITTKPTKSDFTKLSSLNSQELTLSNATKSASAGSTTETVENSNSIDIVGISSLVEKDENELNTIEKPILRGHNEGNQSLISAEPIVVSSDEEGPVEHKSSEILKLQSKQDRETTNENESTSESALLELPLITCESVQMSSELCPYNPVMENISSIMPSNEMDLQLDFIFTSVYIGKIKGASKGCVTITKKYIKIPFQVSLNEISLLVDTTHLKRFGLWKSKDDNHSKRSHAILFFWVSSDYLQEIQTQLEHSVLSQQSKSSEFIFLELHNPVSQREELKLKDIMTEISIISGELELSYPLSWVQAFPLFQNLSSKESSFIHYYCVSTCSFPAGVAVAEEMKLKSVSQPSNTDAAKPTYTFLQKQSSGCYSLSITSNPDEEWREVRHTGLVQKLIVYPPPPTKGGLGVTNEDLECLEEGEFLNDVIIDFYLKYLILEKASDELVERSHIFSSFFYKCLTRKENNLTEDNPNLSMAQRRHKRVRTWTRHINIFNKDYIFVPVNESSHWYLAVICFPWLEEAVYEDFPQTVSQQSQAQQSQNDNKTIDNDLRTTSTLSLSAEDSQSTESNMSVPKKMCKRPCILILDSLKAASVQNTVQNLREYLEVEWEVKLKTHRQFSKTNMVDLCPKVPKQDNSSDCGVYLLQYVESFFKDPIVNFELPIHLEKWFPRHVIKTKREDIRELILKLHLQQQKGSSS

[14] = target: T6, Sentrin-specific protease 6 (Homo sapiens, UniProt Q9GZR1); assay type: functional;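 also: Luminescence-based dose-response confirmatory assay of SENP6 inhibition, following up an ultra-high-throughput screen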
T6 sequence (Q9GZR1 whole entry): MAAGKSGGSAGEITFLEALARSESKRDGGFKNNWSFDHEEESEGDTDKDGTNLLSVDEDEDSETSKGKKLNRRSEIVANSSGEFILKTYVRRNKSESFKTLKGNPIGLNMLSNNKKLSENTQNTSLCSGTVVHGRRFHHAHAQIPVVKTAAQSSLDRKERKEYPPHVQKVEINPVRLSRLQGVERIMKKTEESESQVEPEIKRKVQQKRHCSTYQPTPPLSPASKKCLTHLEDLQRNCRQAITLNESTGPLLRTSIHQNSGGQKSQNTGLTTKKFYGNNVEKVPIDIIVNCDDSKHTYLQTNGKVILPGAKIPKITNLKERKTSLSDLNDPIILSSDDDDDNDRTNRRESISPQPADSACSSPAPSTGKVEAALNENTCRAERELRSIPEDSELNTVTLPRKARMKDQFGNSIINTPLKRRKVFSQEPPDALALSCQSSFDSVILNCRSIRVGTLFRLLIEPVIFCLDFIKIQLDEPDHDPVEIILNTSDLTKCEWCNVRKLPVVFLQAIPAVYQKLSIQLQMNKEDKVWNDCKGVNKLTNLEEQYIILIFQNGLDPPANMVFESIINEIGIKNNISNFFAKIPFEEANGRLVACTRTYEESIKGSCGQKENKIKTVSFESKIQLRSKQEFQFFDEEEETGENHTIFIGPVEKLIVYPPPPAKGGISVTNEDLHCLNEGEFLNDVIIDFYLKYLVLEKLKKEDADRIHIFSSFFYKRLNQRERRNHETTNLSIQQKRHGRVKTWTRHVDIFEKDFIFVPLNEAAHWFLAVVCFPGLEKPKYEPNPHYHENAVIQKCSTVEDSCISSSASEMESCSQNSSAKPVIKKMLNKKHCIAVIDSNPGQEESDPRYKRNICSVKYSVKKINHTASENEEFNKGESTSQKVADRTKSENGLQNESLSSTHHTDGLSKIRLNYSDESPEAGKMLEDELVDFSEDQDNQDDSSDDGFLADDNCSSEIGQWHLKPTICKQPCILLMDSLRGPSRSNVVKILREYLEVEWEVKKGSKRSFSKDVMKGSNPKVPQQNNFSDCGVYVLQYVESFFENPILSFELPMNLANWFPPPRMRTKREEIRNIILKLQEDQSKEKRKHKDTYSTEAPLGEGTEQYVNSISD

[15] = target: T7, Sentrin-specific protease 8 (Homo sapiens, UniProt Q96LD8); assay type: functional;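 also: luminescence read-out of SENP8 inhibition, dose-response confirmation following an ultra-high-throughput screen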
T7 sequence (Q96LD8 whole entry): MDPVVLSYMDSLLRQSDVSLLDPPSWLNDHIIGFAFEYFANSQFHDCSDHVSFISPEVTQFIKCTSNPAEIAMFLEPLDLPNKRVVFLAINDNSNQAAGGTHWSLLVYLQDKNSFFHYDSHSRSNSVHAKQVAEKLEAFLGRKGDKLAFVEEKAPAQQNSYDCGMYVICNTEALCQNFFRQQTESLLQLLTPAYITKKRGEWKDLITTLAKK

[16] = Counterscreen for […] of the human trace amine associated receptor 1 (TAAR1): Fluorescence-based cell-based high throughput dose response assay to identify nonselective Ga16 agonists.; assay type: functional
[17] = target: T8, Trace amine-associated receptor 1 (Homo sapiens, UniProt Q96RJ0); assay: Fluorescence-based cell-based high throughput dose response assay to identify antagonists of the human trace amine associated receptor 1 (TAAR1).; assay type: functional
T8 sequence (Q96RJ0 whole entry): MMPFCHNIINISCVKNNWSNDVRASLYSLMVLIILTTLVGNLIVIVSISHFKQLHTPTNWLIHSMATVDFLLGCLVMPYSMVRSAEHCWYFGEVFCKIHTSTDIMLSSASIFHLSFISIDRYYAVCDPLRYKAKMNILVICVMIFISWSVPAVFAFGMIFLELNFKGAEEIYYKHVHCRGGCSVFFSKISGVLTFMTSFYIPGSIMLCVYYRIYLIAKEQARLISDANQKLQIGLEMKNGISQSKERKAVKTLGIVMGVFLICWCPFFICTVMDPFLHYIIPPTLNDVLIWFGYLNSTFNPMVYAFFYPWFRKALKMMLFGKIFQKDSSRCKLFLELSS

[18] = Counterscreen for antagonists of the human trace amine associated receptor 1 (hTAAR1): Fluorescence-based cell-based high throughput dose response assay to identify nonselective Ga16 antagonists.; assay type: functional
[19] = target: T8, Trace amine-associated receptor 1; assay: Counterscreen for antagonists of the human trace amine associated receptor 1 (hTAAR1): Fluorescence-based cell-based high throughput dose response assay to identify TAAR1 Agonists.; assay type: functional
cells [20] = assay type: functional, cell-based; remark: listed apart in the source
[21] = target: T8, Trace amine-associated receptor 1; assay: Fluorescence-based cell-based high throughput dose response assay to identify agonists of the human trace amine associated receptor 1 (TAAR1).; assay type: functional
[22] = target: T8, Trace amine-associated receptor 1; assay: Counterscreen for agonists of the human trace amine associated receptor 1 (hTAAR1): Fluorescence-based cell-based high throughput dose response assay to identify hTAAR1 agonist that also desensitize TAAR1 receptor response.; assay type: functional
cells [23] = assay type: functional, cell-based; remark: listed apart in the source
[24] = target: Ras and Rab interactor 1/Tyrosine-protein kinase ABL1 (Homo sapiens, UniProt P00519+Q13671); assay type: functional;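 also: biochemical TR-FRET dose-response test measuring inhibition of binding between Rin1 and Abl proteins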

T1 sequence (Q79MP6 whole entry): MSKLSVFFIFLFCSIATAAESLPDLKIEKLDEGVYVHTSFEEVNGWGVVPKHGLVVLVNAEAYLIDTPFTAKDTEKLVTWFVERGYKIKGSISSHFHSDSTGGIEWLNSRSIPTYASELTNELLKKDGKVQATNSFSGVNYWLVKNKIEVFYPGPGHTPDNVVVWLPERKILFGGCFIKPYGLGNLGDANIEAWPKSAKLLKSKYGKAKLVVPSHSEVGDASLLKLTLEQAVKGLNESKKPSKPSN
Sequence of Fructose-bisphosphate aldolase (P9WQA3 whole entry): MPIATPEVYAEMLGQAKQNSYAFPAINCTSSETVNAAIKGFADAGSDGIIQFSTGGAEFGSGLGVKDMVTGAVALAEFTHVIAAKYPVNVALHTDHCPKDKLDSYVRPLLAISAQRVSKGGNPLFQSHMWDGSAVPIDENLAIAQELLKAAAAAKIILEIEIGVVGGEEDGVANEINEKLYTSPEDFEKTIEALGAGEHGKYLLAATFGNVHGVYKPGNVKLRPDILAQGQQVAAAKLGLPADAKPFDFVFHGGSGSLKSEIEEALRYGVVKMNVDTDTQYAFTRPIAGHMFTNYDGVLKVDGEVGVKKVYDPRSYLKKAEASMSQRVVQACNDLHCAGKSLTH
T2 sequence (Q00975 whole entry): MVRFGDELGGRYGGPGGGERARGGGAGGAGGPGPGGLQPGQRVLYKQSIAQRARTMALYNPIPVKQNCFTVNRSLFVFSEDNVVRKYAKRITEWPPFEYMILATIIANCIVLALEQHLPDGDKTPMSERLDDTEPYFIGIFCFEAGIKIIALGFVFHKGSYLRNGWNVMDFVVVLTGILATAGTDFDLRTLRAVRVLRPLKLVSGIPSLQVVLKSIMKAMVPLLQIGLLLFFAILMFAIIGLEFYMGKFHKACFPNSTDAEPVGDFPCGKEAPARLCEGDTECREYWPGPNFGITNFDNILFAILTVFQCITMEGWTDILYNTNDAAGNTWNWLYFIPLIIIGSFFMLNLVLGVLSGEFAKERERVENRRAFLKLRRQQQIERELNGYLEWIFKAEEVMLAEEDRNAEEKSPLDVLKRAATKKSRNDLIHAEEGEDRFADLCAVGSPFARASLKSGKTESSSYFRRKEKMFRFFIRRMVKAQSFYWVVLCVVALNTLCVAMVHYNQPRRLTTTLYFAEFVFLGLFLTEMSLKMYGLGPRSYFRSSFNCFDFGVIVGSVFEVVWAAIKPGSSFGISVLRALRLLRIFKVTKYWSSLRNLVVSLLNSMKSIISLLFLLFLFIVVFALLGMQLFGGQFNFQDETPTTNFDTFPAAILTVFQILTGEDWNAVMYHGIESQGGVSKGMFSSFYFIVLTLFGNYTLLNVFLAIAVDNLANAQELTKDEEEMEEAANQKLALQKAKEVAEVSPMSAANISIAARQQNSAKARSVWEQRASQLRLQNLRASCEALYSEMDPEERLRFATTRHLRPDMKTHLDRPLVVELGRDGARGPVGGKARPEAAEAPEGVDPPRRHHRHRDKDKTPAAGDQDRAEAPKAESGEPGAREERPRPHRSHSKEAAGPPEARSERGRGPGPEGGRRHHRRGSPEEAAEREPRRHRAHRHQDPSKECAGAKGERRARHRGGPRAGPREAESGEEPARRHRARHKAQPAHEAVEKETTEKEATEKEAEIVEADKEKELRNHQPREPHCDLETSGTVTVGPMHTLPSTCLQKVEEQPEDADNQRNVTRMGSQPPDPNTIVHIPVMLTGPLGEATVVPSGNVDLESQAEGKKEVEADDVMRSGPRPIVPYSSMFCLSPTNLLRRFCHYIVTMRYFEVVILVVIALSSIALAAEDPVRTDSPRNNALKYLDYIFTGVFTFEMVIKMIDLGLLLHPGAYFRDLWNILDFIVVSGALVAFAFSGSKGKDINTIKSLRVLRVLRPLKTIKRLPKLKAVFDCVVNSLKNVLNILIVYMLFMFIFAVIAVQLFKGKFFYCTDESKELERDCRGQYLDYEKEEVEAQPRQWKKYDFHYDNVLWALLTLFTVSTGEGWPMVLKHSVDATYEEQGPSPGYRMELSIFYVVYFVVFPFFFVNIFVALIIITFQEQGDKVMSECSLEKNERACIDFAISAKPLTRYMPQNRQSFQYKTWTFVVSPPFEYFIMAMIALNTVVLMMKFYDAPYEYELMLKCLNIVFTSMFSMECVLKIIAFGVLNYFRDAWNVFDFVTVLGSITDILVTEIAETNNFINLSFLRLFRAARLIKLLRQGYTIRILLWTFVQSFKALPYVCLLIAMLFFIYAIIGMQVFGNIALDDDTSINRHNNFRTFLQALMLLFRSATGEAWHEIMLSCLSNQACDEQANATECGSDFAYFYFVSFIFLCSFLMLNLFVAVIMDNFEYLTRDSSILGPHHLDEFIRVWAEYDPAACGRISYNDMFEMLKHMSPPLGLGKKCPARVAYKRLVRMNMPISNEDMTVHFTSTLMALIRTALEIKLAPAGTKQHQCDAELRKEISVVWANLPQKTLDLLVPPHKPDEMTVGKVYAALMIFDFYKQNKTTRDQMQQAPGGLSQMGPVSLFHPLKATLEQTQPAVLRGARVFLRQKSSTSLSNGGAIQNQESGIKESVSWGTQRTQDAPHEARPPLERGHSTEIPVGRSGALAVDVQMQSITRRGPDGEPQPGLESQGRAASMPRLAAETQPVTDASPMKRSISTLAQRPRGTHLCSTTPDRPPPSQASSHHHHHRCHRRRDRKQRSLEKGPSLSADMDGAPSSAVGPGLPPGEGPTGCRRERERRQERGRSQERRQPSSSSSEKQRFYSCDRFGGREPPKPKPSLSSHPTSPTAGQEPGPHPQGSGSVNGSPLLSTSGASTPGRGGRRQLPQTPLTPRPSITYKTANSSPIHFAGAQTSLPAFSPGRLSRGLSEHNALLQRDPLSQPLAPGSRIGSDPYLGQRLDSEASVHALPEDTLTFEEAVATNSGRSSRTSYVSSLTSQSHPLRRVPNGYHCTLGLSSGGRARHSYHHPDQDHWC
T2 sequence (Q02410 whole entry): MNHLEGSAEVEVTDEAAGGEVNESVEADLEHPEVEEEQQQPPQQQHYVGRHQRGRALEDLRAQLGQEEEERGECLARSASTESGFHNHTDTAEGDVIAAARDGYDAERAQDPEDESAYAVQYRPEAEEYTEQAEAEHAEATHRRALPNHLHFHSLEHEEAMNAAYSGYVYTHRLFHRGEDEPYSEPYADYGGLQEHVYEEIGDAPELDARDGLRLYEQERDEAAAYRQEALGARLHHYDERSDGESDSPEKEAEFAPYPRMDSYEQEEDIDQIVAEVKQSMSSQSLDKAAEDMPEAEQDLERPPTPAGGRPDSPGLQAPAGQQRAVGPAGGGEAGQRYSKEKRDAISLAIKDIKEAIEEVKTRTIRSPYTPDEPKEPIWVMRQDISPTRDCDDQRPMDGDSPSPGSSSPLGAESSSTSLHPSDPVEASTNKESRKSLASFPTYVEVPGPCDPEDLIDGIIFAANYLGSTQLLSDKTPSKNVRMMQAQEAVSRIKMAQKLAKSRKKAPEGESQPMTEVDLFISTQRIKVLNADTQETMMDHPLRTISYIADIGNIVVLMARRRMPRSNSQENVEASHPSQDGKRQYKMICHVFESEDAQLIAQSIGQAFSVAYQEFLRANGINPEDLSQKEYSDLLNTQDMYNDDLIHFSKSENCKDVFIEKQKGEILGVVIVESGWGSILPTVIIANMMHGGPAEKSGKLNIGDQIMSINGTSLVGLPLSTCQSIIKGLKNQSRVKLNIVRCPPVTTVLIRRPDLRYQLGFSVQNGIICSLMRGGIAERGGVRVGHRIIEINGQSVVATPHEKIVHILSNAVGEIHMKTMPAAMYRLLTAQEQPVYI
Sequence of Beta-lactamase (Salmonella choleraesuis (strain SC-B67), UniProt Q5J463) (Q5J463 whole entry): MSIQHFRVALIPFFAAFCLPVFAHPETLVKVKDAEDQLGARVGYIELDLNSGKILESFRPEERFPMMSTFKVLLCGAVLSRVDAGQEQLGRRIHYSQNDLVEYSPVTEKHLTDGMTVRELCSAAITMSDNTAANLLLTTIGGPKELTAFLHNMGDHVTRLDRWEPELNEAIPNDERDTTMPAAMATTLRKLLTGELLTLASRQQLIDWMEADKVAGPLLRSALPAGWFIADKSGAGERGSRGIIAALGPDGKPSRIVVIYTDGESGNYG
Sequence of 72 kDa type IV collagenase (P08253 whole entry): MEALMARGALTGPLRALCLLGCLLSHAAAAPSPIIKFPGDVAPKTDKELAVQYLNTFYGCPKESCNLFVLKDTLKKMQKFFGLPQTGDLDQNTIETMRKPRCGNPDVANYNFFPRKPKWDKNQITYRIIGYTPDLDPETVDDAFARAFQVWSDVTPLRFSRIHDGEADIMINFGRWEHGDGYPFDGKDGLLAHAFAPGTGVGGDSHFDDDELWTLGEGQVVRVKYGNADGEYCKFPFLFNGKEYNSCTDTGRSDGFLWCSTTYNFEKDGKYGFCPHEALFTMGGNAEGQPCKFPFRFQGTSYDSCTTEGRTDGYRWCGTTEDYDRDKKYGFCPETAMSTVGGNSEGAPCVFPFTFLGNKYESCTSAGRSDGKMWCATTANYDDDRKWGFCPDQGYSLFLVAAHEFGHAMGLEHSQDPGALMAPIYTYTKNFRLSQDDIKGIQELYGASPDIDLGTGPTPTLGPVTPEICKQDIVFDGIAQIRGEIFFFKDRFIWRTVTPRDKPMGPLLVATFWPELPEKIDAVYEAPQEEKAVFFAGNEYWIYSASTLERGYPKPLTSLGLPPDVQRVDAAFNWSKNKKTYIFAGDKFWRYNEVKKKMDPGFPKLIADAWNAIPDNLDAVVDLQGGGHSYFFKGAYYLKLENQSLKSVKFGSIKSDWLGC
Sequence of 26S proteasome non-ATPase regulatory subunit 14 (O00487 whole entry): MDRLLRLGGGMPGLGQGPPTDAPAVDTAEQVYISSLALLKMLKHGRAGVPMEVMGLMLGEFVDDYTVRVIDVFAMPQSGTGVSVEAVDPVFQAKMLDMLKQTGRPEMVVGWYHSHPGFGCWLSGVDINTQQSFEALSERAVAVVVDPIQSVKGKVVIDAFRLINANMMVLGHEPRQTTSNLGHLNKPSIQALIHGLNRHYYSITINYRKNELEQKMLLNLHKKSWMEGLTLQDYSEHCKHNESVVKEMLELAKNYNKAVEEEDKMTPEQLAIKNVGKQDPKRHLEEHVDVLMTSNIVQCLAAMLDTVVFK

Cc1nn(CCc2nnc(S)n2-c2cccc(Cl)c2)c(C)c1[N+](=O)[O-]
IC50 (Beta-lactamase [1]): > 59.6 µM (inactive) | IC50 (Beta-lactamase [2]): > 59.6 µM (inactive) | IC50 (Beta-lactamase [3]): > 59.6 µM (inactive)

CC(C)Cn1c(S)nnc1-c1ccco1
IC50 (Beta-lactamase [1]): > 59.6 µM (inactive) | IC50 (Beta-lactamase [2]): > 59.6 µM (inactive) | IC50 (Beta-lactamase [3]): > 59.6 µM (inactive)

CCCCn1c(=O)[nH]c(=O)c2c(C(=O)OCC)cc(-c3cccs3)nc21
EC50 (cells [4]): > 350 µM (not active) | EC50 (cells [5]): > 350 µM (not active) | IC50 [6]: 0.582 µM (active)

COC(=O)c1ccc(NC(=O)c2ccc(NC(=O)c3ccco3)cc2)cc1
IC50 [7]: 5.25 µM (active) | IC50 [8]: > 50 µM (inactive) | IC50 [9]: 23 µM (active) | IC50 [10]: > 100 µM (inactive) | IC50 (Prothrombin): 73 µM (active) | IC50 [11]: 25.8 µM (inactive)

Cc1ccc(C(=O)Nc2cccc(NC(=O)c3ccc(C)c([N+](=O)[O-])c3)n2)cc1[N+](=O)[O-]
IC50 [12]: 4.55 µM (active) | IC50 [11]: 41.9 µM (inactive)

S=C(c1ccc(OCc2ccccc2)cc1)N1CCCC1
IC50 (Caspase-3): 8.38 µM (active) | IC50 [13]: 14 µM (active) | IC50 [14]: 11.1 µM (active) | IC50 [15]: 3.69 µM (active) | IC50 [6]: > 9.98 µM (inactive)

O=C(NCCn1cc(SCc2ccccc2F)c2ccccc21)c1c(F)cccc1F
EC50 [16]: > 29.9 µM (inactive) | IC50 [17]: 3.49 µM (active) | IC50 [18]: 38.4 µM (inactive) | EC50 [19]: > 29.9 µM (inactive)

O=C(O)[C@H]1CCCC[C@H]1C(=O)NCCc1ccccc1
IC50 (cells [20]): > 29.9 µM (inactive) | EC50 [21]: 0.37 µM (active) | IC50 [22]: 7.35 µM (active) | EC50 (cells [23]): > 29.9 µM (inactive)

Cc1cc2nc3n(c2cc1C)CC1CC(C(=O)NCCc2cccs2)N(C)C31 (centres undefined)
IC50 (cells [20]): > 29.9 µM (inactive) | EC50 [21]: 2 µM (active) | IC50 [22]: 8.5 µM (active) | EC50 (cells [23]): > 29.9 µM (inactive)

COc1ccc(-n2nnnc2C(C2CC2)N2CCC(n3c(O)nc4ccccc43)CC2)cc1 (centres undefined)
IC50 [24]: 19.8 µM (inactive) | EC50 [16]: > 29.9 µM (inactive) | IC50 [17]: > 9.96 µM (active) | IC50 [18]: > 29.9 µM (inactive) | EC50 [19]: 22.4 µM (inactive)
